Data: patent publication US12121596B2, “Near infrared fluorescent dyes, formulations and related methods” (Washington University, priority 2019, dated 2024)
Positions of bridges follow the written chain, without caps; N, C: chain ends. Non-standard residues stand in square brackets, D forms with d. Residues, ends and D or L forms follow the SMILES beside them. Primed or numbered codes have the meaning given here. *: point of attachment. X1 = CC1(C)C(/C=C/C=C/C=C/C=C2/N(CCC(=O)*)c3ccc4ccccc4c3C2(C)C)=[N+](CCC(=O)[O-])c2ccc3ccccc3c21; Cypate′ = not defined here

What was measured:
[1] = test system: lung (A549), breast (MDA-MB-231 and 4T1), and myeloid leukemia (HL60) cell lines; experiment: Cellular uptake in cancer cell lines, live-cell imaging; format: cell-based; conditions: A549, MDA-MB-231, 4T1, HL60
Procedure: In general, cultured cancer cells were grown and incubated with the indicated amount of probe in Lab-Tek 8-chambered slides for the indicated time durations. Cells were washed with PBS at selected time points and underwent conventional slide preparation, ICC if indicated, and viewing under epifluorescence or confocal. For live-cell imaging of LS301, internalization at 37° C. in human dermal fibroblasts (Coriell Cell Technologies) and tumor cells including 4T1luc, MDA-MB-231, 5TGM, A549, and HL60 (ATCC) cells were cultured in appropriate media supplemented with 10% […] and penicillin/streptomycin and incubated at 37° C. in 5% CO2 incubator. The cells were grown on Lab-Tek 8-chamber slides (Nunc Inc. Rochester, NY) in the culture medium overnight before the experiment. The compounds were dissolved in 20% DMSO in […] PBS (pH 7.4) (Sigma, St. Louis, MO) for stocking solution and mixed with culture medium to reach the final concentration. Cells were incubated with 1 μM compounds in chamber slides at different time points at 37° C. After LS301 treatment, the culture media was removed and followed by adding culture media containing SYTO 13 nuclear dye from (Thermo Fisher Scientific, Waltham, MA) for 45 minutes at 37° C. For assessing cellular colocalization of LS301 with lipid rafts, the Vybrant AlexaFluor 488 Lipid Raft Labeling Kit (Thermo Fisher Scientific, Waltham, MA, USA) was used per the manufacturer's instructions. […]. LS301 and AlexaFluor 488 fluorescence were imaged using the cypate filter set (Ex/Em 750-800 nm/818-873 nm) and fluorescein isothiocyanate (FITC) filter set (Ex/Em 460-500/510-560 nm), respectively.

[2] = test system: breast cancer patient-derived xenograft; experiment: In vivo NIR imaging of tumor retention; set-up: species or system mice; conditions: for tumor retention: control experiments, patient-derived xenograft
Procedure: To establish the various tumor models, nude, Balb/c, or C57BL6 mice were injected with 10^5-10^7 tumor cells subcutaneously on unilateral or bilateral flanks. In some cases, spontaneous tumor models were used. Animals injected subcutaneously with saline served as sham tumor controls. For near-infrared imaging, 100 μL volumes of 60 μM LS301 or cypate in PBS were injected intravenously by lateral tail vein, and animals were imaged using a Pearl Small Animal Imager (LI-COR Biotechnology, Lincoln, NE, USA) at the indicated time points. In some experiments, probes were formulated in 1% albumin in PBS. Animals were shaved using commercially available hair removal equipment and products before imaging. For experiments involving further tissue analysis, animals were anesthetized with isoflurane and euthanized by cervical dislocation under anesthesia. Organs were harvested by surgical dissection. For quantitative organ biodistribution studies, individual regions of interest were drawn around each organ of interest, and fluorescence was quantified using the Pearl Small Animal Imager software.

heart = conditions: in vivo
diverse tumors = experiment: LS838 fluorescence and tumor retention
4T1 luc/GFP cells = experiment: In vitro blocking of LS301 binding and internalization; format: cell-based, murine
Procedure: For in vitro blocking studies of LS301, 4T1 luc/GFP cells were treated for 24 h with LS301 alone, blocking peptide LCKLSL plus LS301, scrambled blocking peptide LGKLSL plus LS301, or unlabeled LS301 analog LS637 plus LS301. Cells were prepared for confocal microscopy.

CC1(C)C(/C=C/C=C/C=C/C=C2/N(CCC(=O)O)c3ccc4ccccc4c3C2(C)C)=[N+](CCC(=O)[O-])c2ccc3ccccc3c21 [Cypate]
retention in cell lines [1]: only transient retention
tumor retention [2]: not retained
tumor retention with or without albumin formulation ([2]; in vivo): did not retain

COc1cccc2c1C(=O)c1c(O)c3c(c(O)c1C2=O)C[C@@](O)(C(=O)CO)C[C@@H]3O[C@H]1C[C@H](NC(=O)CC[N+]2=C(/C=C/C=C/C=C/C=C3/N(CCC(=O)N[C@@H]4CSSC[C@@H](C(=O)N[C@@H](CCCCN)C(=O)O)NC(=O)[C@@H]5CCCN5C(=O)[C@H](CO)NC(=O)[C@H](CC(=O)O)NC(=O)[C@H](CCCNC(=N)N)NC(=O)CNC4=O)c4ccc5ccccc5c4C3(C)C)C(C)(C)c3c2ccc2ccccc32)[C@H](O)[C@H](C)O1 [LS766, doxorubicin-cypate-cyclic(DCys-Gly-Arg-Asp-Ser-Pro-Cys)-Lys-OH]
accumulation in the heart (heart): does not accumulate in the heart

CC1(C)C(/C=C/C=C/C=C/C=C2/N(CCC(=O)N[C@@H]3CSSC[C@@H](C(=O)N[C@@H](Cc4ccc(O)cc4)C(=O)O)NC(=O)[C@@H]4CCCN4C(=O)[C@H](CO)NC(=O)[C@H](CC(=O)O)NC(=O)[C@H](CCCNC(=N)N)NC(=O)CNC3=O)c3ccc4ccccc4c3C2(C)C)=[N+](CCC(=O)[O-])c2ccc3ccccc3c21 [LS838, cypate-Cyclo(Cys-Gly-Arg-Asp-Ser-Pro-Cys)-Tyr-OH] (X1-[dC]GRDSPCY-OH; disulfide 1-7)
retention in tumors (diverse tumors): selectively remains in diverse tumors without significant loss of fluorescence over time

Cypate-cyclo(Cys-Arg-Gly-Asp-Ser-Pro-Cys)-Lys-OH ({Cypate′}-CRGDSPCK-OH; disulfide 1-7) [scrambled LS301 peptide analog]
tumor retention [2]: not retained

LCKLSL
effect on binding and internalization of LS301 in cells (4T1 luc/GFP cells): inhibited the binding and internalization of LS301
